# Measurements published in article PMC11726016 (Cancer Discovery, 2024).
# Tests used:
# [1] = tested on: SDMA and γH2AX in bone marrow, blood and DOHH-2 tumor; assay: Pharmacodynamics and MOA in vivo assay; settings: DOHH-2 study, Day 11; LLY-283 30 mg/kg, AM-9747 100 mg/kg PO QD
# DOHH-2 tumors = assay: DOHH-2 tumor study, AM-9747 vs LLY-283; assay type: in vivo, mouse; settings: LLY-283 30 mg/kg, AM-9747 100 mg/kg PO QD
# [2] = tested on: bone marrow progenitors and circulating blood cells; assay: Bone marrow progenitor populations and circulating blood cells; assay type: in vivo, mouse; settings: DOHH-2 study; LLY-283 30 mg/kg, AM-9747 100 mg/kg PO QD
# [3] = tested on: endogenous MTAP WT and MTAP-deleted cancer cell lines; assay: Viability in a panel of endogenous MTAP WT and MTAP-deleted cancer cells; assay type: cell-based, human; settings: 6 days
compound,measurement,setting,value
Nc1ncnc2c1ccn2[C@@H]1O[C@H]([C@H](O)c2ccccc2)[C@@H](O)[C@H]1O [LLY-283],Blood SDMA decrease,[1],79%
same,Bone marrow SDMA decrease,[1],71%
same,Tumor SDMA decrease,[1],21%
same,tumor-free mice,DOHH-2 tumors,2/10
same,"circulating blood cells (RBC, reticulocytes, platelets)",[2],"highly substantial reductions in red blood cells (RBC), reticulocytes, and platelets"
same,megakaryocytic and erythroid progenitors (MEP) population in bone marrow,[2],substantial reduction
same,relation of MTAP status to sensitivity in the cell panel,[3],MTAP status did not track closely with sensitivity
